Measurements as given in PMC4032265 (PLoS ONE, 2014).
Where two headings read alike, the source gives them in different places.

Columns and labels:
[1] = target: β2 adrenergic receptor (Homo sapiens, UniProt P07550); experiment: PDSP radioligand binding, β2; conditions: read-out: % inhibition at 10 µM; single concentration 10 µM
[2] = target: T1, M1 muscarinic acetylcholine receptor (Homo sapiens, UniProt P11229); experiment: PDSP radioligand binding, M1; conditions: read-out: % inhibition at 10 µM; single concentration 10 µM
T1 sequence (P11229 1-460): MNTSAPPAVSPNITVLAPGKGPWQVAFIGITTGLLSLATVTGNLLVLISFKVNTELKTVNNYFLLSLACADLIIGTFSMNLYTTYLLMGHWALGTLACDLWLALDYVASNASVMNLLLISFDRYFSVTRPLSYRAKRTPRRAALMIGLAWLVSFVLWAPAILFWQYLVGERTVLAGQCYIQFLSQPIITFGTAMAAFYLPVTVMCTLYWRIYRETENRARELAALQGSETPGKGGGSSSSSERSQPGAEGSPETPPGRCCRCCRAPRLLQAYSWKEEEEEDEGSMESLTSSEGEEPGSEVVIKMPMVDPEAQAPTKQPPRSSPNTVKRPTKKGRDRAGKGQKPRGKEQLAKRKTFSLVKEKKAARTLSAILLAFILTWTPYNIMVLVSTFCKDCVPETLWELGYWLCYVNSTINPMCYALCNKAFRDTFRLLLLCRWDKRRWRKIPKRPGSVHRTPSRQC

[3] = target: 5HT2A serotonergic receptor (Homo sapiens, UniProt P28223); experiment: PDSP radioligand binding, 5HT2A; conditions: read-out: % inhibition at 10 µM
[4] = target: D5 dopaminergic receptor (Homo sapiens, UniProt P21918); experiment: PDSP radioligand binding, D5; conditions: read-out: % inhibition at 10 µM; single concentration 10 µM
[5] = target: T2, α1B adrenergic receptor (Homo sapiens, UniProt P35368); experiment: PDSP radioligand binding, α1B; conditions: read-out: % inhibition at 10 µM; single concentration 10 µM
T2 sequence (P35368 1-520): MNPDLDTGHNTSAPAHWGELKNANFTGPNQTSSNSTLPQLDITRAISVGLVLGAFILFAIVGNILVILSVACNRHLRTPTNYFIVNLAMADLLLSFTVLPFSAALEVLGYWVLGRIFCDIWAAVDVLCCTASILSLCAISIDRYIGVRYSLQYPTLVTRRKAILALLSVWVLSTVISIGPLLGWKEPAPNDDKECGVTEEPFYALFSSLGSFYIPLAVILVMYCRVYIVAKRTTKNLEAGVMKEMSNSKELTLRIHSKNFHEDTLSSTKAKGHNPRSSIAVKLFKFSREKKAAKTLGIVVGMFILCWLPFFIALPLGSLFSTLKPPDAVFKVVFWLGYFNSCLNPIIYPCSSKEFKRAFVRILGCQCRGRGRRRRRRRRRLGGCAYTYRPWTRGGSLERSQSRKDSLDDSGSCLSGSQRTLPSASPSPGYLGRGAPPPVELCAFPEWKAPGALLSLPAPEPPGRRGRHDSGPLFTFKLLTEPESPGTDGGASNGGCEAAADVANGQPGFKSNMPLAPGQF

[6] = target: T3, α2A adrenergic receptor (Homo sapiens, UniProt P08913); experiment: PDSP radioligand binding, α2A; conditions: for Ki: full concentration-response curves, n = 3-6 unless noted; for inhibition at 10 µM: read-out: % inhibition at 10 µM, single concentration 10 µM
T3 sequence (P08913 1-465): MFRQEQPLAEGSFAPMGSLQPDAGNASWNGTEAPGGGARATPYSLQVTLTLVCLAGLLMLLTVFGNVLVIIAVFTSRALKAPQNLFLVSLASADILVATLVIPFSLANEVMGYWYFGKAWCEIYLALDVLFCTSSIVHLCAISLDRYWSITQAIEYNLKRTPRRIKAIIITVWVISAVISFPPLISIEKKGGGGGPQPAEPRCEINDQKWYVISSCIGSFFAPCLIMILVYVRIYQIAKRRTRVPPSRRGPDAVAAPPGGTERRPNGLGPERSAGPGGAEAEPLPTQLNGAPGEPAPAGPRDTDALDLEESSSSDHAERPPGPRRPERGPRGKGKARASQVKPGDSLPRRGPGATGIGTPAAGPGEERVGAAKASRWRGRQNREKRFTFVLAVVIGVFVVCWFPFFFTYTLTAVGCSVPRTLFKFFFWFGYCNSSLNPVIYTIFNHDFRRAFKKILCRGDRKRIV

[7] = target: µ opioid receptor (Homo sapiens, UniProt P35372); experiment: PDSP radioligand binding, µ opioid; conditions: read-out: % inhibition at 10 µM; single concentration 10 µM
[8] = target: 5HT1D serotonergic receptor (Homo sapiens, UniProt P28221); experiment: PDSP radioligand binding, 5HT1D; conditions: read-out: % inhibition at 10 µM; single concentration 10 µM
[9] = target: T4, σ2 receptor (Rattus norvegicus, UniProt Q5U3Y7); experiment: PDSP radioligand binding, σ2; conditions: for inhibition at 10 µM: read-out: % inhibition at 10 µM, single concentration 10 µM
T4 sequence (Q5U3Y7 1-176): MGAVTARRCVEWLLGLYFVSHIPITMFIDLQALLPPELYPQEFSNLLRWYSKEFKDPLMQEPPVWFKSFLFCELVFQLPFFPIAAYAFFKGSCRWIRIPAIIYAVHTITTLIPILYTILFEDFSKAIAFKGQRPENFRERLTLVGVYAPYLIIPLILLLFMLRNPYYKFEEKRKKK

[10] = target: T5, D4 dopaminergic receptor (Homo sapiens, UniProt P21917); experiment: PDSP radioligand binding, D4; conditions: read-out: % inhibition at 10 µM; single concentration 10 µM
T5 sequence (P21917 1-419): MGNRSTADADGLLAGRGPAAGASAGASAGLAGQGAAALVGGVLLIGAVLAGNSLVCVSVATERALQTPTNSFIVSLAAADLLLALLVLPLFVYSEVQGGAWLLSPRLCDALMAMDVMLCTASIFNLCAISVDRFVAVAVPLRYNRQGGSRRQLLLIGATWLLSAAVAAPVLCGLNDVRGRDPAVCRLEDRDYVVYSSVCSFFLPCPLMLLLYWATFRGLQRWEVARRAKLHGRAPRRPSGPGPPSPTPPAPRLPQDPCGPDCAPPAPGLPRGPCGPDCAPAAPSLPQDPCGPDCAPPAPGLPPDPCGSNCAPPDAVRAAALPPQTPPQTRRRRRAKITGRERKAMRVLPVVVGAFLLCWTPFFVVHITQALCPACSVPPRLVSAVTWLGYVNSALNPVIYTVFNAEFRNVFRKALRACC

[11] = target: 5HT1E serotonergic receptor (Homo sapiens, UniProt P28566); experiment: PDSP radioligand binding, 5HT1E; conditions: read-out: % inhibition at 10 µM; single concentration 10 µM
[12] = target: β3 adrenergic receptor (Homo sapiens, UniProt P13945); experiment: PDSP radioligand binding, β3; conditions: for inhibition at 10 µM: read-out: % inhibition at 10 µM, single concentration 10 µM; for Ki: full concentration-response curves, n = 3-6 unless noted
[13] = target: β1 adrenergic receptor (Homo sapiens, UniProt P08588); experiment: PDSP radioligand binding, β1; conditions: read-out: % inhibition at 10 µM; single concentration 10 µM
Sequence of β1 adrenergic receptor (P08588 whole entry, species assumed): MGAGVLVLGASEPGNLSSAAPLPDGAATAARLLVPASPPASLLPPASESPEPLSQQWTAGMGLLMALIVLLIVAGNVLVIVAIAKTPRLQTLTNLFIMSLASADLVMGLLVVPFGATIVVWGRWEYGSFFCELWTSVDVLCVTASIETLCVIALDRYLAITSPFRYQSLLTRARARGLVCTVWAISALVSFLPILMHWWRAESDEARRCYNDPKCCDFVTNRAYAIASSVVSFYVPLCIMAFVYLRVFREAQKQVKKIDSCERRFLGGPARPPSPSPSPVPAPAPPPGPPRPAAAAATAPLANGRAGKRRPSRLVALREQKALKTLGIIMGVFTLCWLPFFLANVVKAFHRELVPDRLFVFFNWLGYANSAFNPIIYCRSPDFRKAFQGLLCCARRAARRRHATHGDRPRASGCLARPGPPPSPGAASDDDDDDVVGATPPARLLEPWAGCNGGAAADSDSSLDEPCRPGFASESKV

Sequence of 5HT2A serotonergic receptor (P28223 whole entry): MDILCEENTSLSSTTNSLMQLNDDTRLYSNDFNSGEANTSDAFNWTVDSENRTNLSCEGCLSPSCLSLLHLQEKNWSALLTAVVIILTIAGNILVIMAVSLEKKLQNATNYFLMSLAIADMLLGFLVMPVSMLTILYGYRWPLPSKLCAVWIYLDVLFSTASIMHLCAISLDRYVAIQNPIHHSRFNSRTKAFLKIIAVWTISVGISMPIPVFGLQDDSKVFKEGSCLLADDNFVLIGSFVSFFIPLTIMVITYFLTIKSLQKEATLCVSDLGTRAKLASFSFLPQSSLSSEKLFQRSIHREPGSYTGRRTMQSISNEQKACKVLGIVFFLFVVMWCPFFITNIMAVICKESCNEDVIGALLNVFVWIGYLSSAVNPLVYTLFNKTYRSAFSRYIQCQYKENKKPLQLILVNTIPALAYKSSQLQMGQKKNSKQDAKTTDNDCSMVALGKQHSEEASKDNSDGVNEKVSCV
Sequence of 5HT1E serotonergic receptor (P28566 whole entry): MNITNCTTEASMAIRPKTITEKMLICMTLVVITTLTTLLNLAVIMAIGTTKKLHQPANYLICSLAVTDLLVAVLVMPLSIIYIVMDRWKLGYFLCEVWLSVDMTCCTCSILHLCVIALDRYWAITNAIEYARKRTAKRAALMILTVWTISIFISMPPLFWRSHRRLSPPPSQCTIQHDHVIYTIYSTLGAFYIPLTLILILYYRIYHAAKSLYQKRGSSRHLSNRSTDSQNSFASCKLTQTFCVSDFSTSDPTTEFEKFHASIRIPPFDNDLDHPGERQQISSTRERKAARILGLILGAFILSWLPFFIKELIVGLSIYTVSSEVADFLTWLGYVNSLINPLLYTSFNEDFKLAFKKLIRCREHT
Sequence of µ opioid receptor (P35372 whole entry): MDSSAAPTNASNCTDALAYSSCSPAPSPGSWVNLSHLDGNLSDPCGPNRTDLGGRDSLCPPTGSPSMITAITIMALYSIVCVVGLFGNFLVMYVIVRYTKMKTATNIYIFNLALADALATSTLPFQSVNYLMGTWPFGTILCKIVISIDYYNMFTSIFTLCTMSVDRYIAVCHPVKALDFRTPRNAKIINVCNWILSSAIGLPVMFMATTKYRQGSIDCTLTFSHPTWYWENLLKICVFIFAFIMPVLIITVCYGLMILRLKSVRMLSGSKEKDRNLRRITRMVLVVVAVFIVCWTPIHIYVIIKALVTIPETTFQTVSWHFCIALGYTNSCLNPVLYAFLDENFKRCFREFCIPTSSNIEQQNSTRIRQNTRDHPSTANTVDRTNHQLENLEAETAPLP
Sequence of 5HT1D serotonergic receptor (P28221 whole entry): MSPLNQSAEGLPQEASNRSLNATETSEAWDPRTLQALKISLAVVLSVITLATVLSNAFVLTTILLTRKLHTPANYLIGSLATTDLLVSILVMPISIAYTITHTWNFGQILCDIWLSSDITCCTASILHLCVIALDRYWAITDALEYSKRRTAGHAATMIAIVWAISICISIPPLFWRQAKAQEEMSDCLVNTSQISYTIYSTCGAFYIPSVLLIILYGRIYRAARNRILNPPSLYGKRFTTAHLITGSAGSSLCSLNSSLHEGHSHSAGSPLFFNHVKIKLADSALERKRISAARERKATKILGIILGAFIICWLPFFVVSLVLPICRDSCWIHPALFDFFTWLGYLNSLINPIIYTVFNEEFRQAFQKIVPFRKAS
Sequence of β3 adrenergic receptor (P13945 whole entry): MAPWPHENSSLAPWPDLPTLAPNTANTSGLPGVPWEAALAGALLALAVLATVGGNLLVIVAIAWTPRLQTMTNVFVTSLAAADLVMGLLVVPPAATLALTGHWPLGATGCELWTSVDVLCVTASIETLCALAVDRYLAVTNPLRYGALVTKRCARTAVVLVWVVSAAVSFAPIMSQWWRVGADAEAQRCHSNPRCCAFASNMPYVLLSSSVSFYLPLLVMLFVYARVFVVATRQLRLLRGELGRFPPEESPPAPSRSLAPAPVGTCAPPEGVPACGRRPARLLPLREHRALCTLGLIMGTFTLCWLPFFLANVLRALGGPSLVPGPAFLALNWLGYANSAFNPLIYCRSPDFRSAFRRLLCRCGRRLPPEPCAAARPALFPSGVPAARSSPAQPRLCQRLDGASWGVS
Sequence of β2 adrenergic receptor (P07550 whole entry): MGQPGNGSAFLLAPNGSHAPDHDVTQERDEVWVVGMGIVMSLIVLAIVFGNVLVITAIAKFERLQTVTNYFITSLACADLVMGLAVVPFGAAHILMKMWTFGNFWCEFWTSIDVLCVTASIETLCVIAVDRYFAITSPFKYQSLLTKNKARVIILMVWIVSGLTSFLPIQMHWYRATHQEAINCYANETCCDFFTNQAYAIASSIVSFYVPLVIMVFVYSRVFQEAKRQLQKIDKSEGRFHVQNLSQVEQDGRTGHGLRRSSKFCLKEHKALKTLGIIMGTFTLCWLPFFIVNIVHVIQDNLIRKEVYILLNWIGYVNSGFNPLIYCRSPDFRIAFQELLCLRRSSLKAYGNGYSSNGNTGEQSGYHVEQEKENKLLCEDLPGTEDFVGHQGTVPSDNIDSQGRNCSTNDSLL
Sequence of D5 dopaminergic receptor (P21918 whole entry): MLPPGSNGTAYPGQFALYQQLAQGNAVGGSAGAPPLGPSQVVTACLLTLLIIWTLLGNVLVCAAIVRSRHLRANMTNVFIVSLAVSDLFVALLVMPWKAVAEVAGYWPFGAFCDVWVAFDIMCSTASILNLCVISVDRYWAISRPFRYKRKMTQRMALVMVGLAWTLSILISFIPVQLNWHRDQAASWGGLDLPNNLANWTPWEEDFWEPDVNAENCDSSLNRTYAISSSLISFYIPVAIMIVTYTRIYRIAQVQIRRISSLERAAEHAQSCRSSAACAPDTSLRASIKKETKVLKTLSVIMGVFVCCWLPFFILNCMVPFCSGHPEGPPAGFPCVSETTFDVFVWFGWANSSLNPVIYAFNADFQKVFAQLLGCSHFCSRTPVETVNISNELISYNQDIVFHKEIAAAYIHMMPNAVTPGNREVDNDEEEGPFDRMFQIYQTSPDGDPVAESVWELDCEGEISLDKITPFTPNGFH

| SMILES | inhibition at 10 µM [1] [%] | inhibition at 10 µM [2] [%] | inhibition at 10 µM [3] [%] | inhibition at 10 µM [4] [%] | inhibition at 10 µM [5] [%] | Ki [6] [µM] | inhibition at 10 µM [6] [%] | inhibition at 10 µM [7] [%] | inhibition at 10 µM [8] [%] | inhibition at 10 µM [9] [%] | inhibition at 10 µM [10] [%] | inhibition at 10 µM [11] [%] | inhibition at 10 µM [12] [%] | inhibition at 10 µM [13] [%] | inhibition at 10 µM ([3]; single concentration 10 µM) [%] | Ki [12] [µM] | Ki ([9]; full curves, n = 2) [µM] |
| --- | --- | --- | --- | --- | --- | --- | --- | --- | --- | --- | --- | --- | --- | --- | --- | --- | --- |
| Clc1cccc(CNc2nc(Cl)nc3[nH]cnc23)c1 [Compound 9] | 0 | 12 | 0 | 0 | 0 | 3 ± 0.51 | 58 | 0 | 14 | 0 | 0 | 0 | 0 | 37 | – | – | – |
| CNC(=O)[C@@]12C[C@@H]1[C@@H](n1cnc3c(NCc4cccc(Cl)c4)nc(C#Cc4ccc(F)cc4)nc31)[C@H](O)[C@@H]2O [Compound 2] | 0 | 12 | – | 19 | 1 | – | 6 | 7 | 21 | 30 | 0 | 0 | 67 | 0 | 19 | 1.56 ± 0.56 | – |
| Fc1ccc(C#Cc2nc(NCc3cccc(Cl)c3)c3nc[nH]c3n2)cc1F [Compound 8] | 0 | 27 | – | 9 | 30 | 2.19 ± 0.27 | 34 | 15 | 26 | 14 | 0 | 0 | 5 | 0 | 9 | – | – |
| CNC(=O)[C@@]12C[C@@H]1[C@@H](n1cnc3c(NC)nc(C#Cc4ccc(F)c(F)c4)nc31)[C@H](O)[C@@H]2O [Compound 5] | 2 | 0 | 11 | 6 | 11 | – | 0 | 5 | 13 | 33 | 4 | 9 | 22 | 9 | – | 2.32 ± 0.39 | – |
| O[C@@H]1[C@H](O)[C@@H]2C[C@@H]2[C@H]1n1cnc2c(NCc3cccc(Cl)c3)ncnc21 [Compound 7] | 53 | 24 | – | 7 | 32 | – | 26 | 1 | 4 | 66 | 0 | 0 | 4 | 0 | 7 | – | 2.68 ± 0.47 |
